# Assay results as given in patent US9233964B2, “Sulfamide piperazine derivatives as protein tyrosine kinase inhibitors and pharmaceutical use therof” (LEO PHARMA A/S, priority 2011, dated 2016).
# Experiments:
# Assay type in all cases: biochemical
# JAK2 = target: T1, JAK2 (Homo sapiens, UniProt O60674); assay: JAK kinase assay (HTRF, phosphorylation of synthetic peptide), JAK2; conditions: catalytic domain, ATP at Km (4 μM); read-out: JAK2 kinase inhibitory activity (EC50)
# T1 construct: All four purified enzymes contain only the catalytic domain; His (N); purchased Carna Biosciences, Inc; host or cells: baculovirus expression system
# Description: (§1) Human baculovirus-expressed JAK1, 2, 3 and TYK2 were purchased from Carna Biosciences, Inc. All four purified enzymes contain only the catalytic domain. JAK1 (aa 850-1154) and TYK2 (aa 871-1187) are expressed with an N-terminally fused GST-tag, and JAK2 and JAK3 with an N-terminally fused His-tag.
# (§2) Inhibition of phosphorylation of a synthetic peptide was measured in an HTRF-based assay using the TK substrate-Biotin from the Cisbio HTRFKinEASE TK kit. First, 2 μl of TK solution (TK substrate-biotin in kinase buffer [1× enzymatic buffer from HTRFKinEASE TK kit, 1 mM DTT]) is added to a plate containing 1 μl prediluted compound (final assay concentration DMSO: 0.75%). Then, 5 μl kinase-ATP mix (prepared in kinase buffer) is added to the wells and the plates are incubated at RT for 20-30 min. For all four kinases a concentration of ATP that corresponded to the Km for ATP was used. The final concentrations of buffers, substrate, kinase and ATP were: JAK1: 50 mM Hepes buffer pH 7.0, 0.01% BSA, 10 mM MgCl2, 1 mM DTT, 7 μM ATP, 50 nM SEB, 1 μM TK Substrate-Biotin and 5 ng JAK1; JAK2: 50 mM Hepes buffer pH 7.0, 0.01% BSA, 5 mM MgCl2, 1 mM DTT, 4 μM ATP, 1 μM TK Substrate-Biotin and 0.1 ng JAK2; JAK3: 50 mM Hepes buffer pH 7.0, 0.01% BSA, 5 mM MgCl2, 1 mM DTT, 2 μM ATP, 1 μM TK Substrate-Biotin and 0.3 ng JAK3; TYK2: 50 mM Hepes buffer pH 7.0, 0.01% BSA, 5 mM MgCl2, 1 mM DTT, 13 μM ATP, 50 nM SEB, 1 μM TK Substrate-Biotin and 0.8 ng TYK2. Thereafter, the kinase reaction is stopped by adding 4 μl detection mix (final concentrations: 50 mM Hepes buffer pH 7.0, 0.01% BSA, 0.8 M KF, 20 mM EDTA, 42 nM Streptavidin-XL665 and 1:400 STK Ab Cryptate) and the plates are incubated overnight in the dark. The HTRF signal is read using an Envision plate reader.
# TYK2 = target: T2, TYK2 (Homo sapiens, UniProt P29597); assay: JAK kinase assay (HTRF, phosphorylation of synthetic peptide), TYK2; conditions: catalytic domain, ATP at Km (13 μM); read-out: TYK2 kinase inhibitory activity (EC50)
# T2 construct: JAK1 (aa 850-1154) and TYK2 (aa 871-1187) are expressed with an N-terminally fused GST-tag; GST (N); purchased Carna Biosciences, Inc; host or cells: baculovirus expression system
# T2 sequence (P29597 871-1187): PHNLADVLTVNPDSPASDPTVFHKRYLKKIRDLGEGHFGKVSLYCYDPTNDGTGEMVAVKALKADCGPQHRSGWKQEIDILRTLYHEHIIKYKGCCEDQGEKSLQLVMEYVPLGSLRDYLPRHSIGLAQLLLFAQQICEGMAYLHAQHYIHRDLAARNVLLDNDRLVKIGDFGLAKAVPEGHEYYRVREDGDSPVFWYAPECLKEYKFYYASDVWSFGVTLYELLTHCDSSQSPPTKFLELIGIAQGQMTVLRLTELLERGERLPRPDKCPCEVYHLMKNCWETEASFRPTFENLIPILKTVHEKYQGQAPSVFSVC
# Description: as §1, §2
# JAK3 = target: T3, JAK3 (Homo sapiens, UniProt P52333); assay: JAK kinase assay (HTRF, phosphorylation of synthetic peptide), JAK3; conditions: catalytic domain, ATP at Km (2 μM); read-out: JAK3 kinase inhibitory activity (EC50)
# T3 construct: All four purified enzymes contain only the catalytic domain; His (N); purchased Carna Biosciences, Inc; host or cells: baculovirus expression system
# Description: as §1, §2
# JAK1 = target: T4, JAK1 (Homo sapiens, UniProt P23458); assay: JAK kinase assay (HTRF, phosphorylation of synthetic peptide), JAK1; conditions: catalytic domain, ATP at Km (7 μM); read-out: JAK1 kinase inhibitory activity (EC50)
# T4 construct: JAK1 (aa 850-1154) and TYK2 (aa 871-1187) are expressed with an N-terminally fused GST-tag; GST (N); purchased Carna Biosciences, Inc; host or cells: baculovirus expression system
# Description: as §1, §2
# T3 sequence (P52333 822-1111 limits assumed): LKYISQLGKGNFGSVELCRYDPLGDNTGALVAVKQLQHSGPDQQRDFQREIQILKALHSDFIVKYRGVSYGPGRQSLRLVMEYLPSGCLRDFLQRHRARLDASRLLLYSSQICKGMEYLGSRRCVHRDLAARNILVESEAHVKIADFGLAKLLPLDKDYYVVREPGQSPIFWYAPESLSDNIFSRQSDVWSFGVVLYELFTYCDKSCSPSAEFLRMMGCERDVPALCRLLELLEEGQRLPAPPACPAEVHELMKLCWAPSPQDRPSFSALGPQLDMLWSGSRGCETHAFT
# T1 sequence (O60674 849-1124 limits assumed): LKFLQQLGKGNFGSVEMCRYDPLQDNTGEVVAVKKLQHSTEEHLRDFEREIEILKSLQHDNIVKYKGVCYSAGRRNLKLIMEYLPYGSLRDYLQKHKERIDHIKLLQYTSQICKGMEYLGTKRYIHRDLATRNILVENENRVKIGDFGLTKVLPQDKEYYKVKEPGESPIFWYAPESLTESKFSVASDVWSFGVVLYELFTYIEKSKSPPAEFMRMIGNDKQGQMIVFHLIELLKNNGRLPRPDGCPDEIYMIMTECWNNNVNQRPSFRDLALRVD
# T4 sequence (P23458 850-1154): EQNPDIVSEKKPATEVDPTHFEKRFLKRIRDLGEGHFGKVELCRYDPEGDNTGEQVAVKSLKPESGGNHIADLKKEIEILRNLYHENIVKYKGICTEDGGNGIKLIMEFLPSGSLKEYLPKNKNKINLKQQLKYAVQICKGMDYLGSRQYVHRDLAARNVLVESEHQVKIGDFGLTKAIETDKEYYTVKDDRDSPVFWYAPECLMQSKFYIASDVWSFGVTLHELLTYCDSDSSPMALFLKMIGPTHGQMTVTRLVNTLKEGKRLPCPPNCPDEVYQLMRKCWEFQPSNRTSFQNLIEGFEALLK
EC50 (JAK2) [nM],EC50 (TYK2) [nM],EC50 (JAK3) [nM],EC50 (JAK1) [nM],SMILES
< 100,< 100,< 100,< 100,"CN(CCc1cccc(F)c1)S(=O)(=O)N1CCN(c2ncnc3[nH]ccc23)CC12CC2 [Example 17, 7-(7H-Pyrrolo[2,3-d]pyrimidin-4-yl)-4,7-diaza-spiro[2.5]octane-4-sulfonic acid [2-(3-fluoro-phenyl)-ethyl]-methyl-amide]"
< 100,> 500,100 to 500,100 to 500,"CC(C)CN(CCc1ccccc1)S(=O)(=O)N1CCN(c2ncnc3[nH]ccc23)CC12CC2 [Example 6, 7-(7H-Pyrrolo[2,3-d]pyrimidin-4-yl)-4,7-diaza-spiro[2.5]octane-4-sulfonic acid isobutyl-phenethyl-amide]"
< 100,100 to 500,< 100,< 100,NS(=O)(=O)N1CCN(c2ncnc3[nH]ccc23)CC12CC2 [Int 1]
< 100,< 100,< 100,< 100,"CN(C1CN(S(C)(=O)=O)C1)S(=O)(=O)N1CCN(c2ncnc3[nH]ccc23)CC12CC2 [Example 180, N-methyl-N-(1-methylsulfonylazetidin-3-yl)-5-(7H-pyrrolo[2,3-d]pyrimidin-4-yl)-5,8-diazaspiro[2.5]octane-8-sulfonamide]"
< 100,> 500,100 to 500,< 100,"CN(C(=O)CCC1CCS(=O)(=O)C1)S(=O)(=O)N1CCN(c2ncnc3[nH]ccc23)CC12CC2 (stereo not shown) [Example 137, 3-(1,1-dioxothiolan-3-yl)-N-methyl-N-[[5-(7H-pyrrolo[2,3-d]pyrimidin-4-yl)-5,8-diazaspiro[2.5]octan-8-yl]sulfonyl]propanamide]"
< 100,100 to 500,< 100,< 100,"CC(CN(C)S(=O)(=O)N1CCN(c2ncnc3[nH]ccc23)CC12CC2)c1ccccc1 (stereo not shown) [Example 63, N-methyl-N-(2-phenylpropyl)-5-(7H-pyrrolo[2,3-d]pyrimidin-4-yl)-5,8-diazaspiro[2.5]octane-8-sulfonamide]"
< 100,> 500,,< 100,"CN(Cc1ccc(C(F)(F)F)cc1)S(=O)(=O)N1CCN(c2ncnc3[nH]ccc23)CC12CC2 [Example 81, N-methyl-5-(7H-pyrrolo[2,3-d]pyrimidin-4-yl)-N-[[4-(trifluoromethyl)phenyl]methyl]-5,8-diazaspiro[2.5]octane-8-sulfonamide]"
< 100,100 to 500,< 100,< 100,"CN(CCC1CCS(=O)(=O)C1)S(=O)(=O)N1CCN(c2ncnc3[nH]ccc23)CC12CC2 (stereo not shown) [Example 75, N-[2-(1,1-dioxothiolan-3-yl)ethyl]-N-methyl-5-(7H-pyrrolo[2,3-d]pyrimidin-4-yl)-5,8-diazaspiro[2.5]octane-8-sulfonamide]"
< 100,> 500,100 to 500,< 100,O=S(=O)(NC1CCC1)N1CCN(c2ncnc3[nH]ccc23)CC12CC2 [Int 30]
< 100,100 to 500,< 100,< 100,"CC(=O)N(CC1CCS(=O)(=O)C1)S(=O)(=O)N1CCN(c2ncnc3[nH]ccc23)CC12CC2 (stereo not shown) [Example 172, N-[(1,1-dioxothiolan-3-yl)methyl]-N-[[5-(7H-pyrrolo[2,3-d]pyrimidin-4-yl)-5,8-diazaspiro[2.5]octan-8-yl]sulfonyl]acetamide]"
< 100,< 100,< 100,< 100,"CN(CC1CC1)S(=O)(=O)N1CCN(c2ncnc3[nH]ccc23)CC12CC2 [Example 59, N-(cyclopropylmethyl)-N-methyl-5-(7H-pyrrolo[2,3-d]pyrimidin-4-yl)-5,8-diazaspiro[2.5]octane-8-sulfonamide]"
< 100,100 to 500,< 100,< 100,"N#CCN(CC#N)S(=O)(=O)N1CCN(c2ncnc3[nH]ccc23)CC12CC2 [Example 145, N,N-bis(cyanomethyl)-5-(7H-pyrrolo[2,3-d]pyrimidin-4-yl)-5,8-diazaspiro[2.5]octane-8-sulfonamide]"
< 100,< 100,< 100,< 100,"O=S1(=O)CCC(CN(CCO)S(=O)(=O)N2CCN(c3ncnc4[nH]ccc34)CC23CC3)CC1 [Example 170, N-[(1,1-dioxothian-4-yl)methyl]-N-(2-hydroxyethyl)-5-(7H-pyrrolo[2,3-d]pyrimidin-4-yl)-5,8-diazaspiro[2.5]octane-8-sulfonamide]"
< 100,< 100,< 100,< 100,"CN(CC1CCC(F)(F)CC1)S(=O)(=O)N1CCN(c2ncnc3[nH]ccc23)CC12CC2 [Example 62, N-[(4,4-difluorocyclohexyl)methyl]-N-methyl-5-(7H-pyrrolo[2,3-d]pyrimidin-4-yl)-5,8-diazaspiro[2.5]octane-8-sulfonamide]"
< 100,100 to 500,< 100,< 100,"CN(CC1CCN(S(C)(=O)=O)C1)S(=O)(=O)N1CCN(c2ncnc3[nH]ccc23)CC12CC2 (stereo not shown) [Example 119, N-methyl-N-[(1-methylsulfonylpyrrolidin-3-yl)methyl]-5-(7H-pyrrolo[2,3-d]pyrimidin-4-yl)-5,8-diazaspiro[2.5]octane-8-sulfonamide]"
< 100,< 100,< 100,< 100,"CN(C[C@@H]1CC(F)(F)CN1S(=O)(=O)CCCC#N)S(=O)(=O)N1CCN(c2ncnc3[nH]ccc23)CC12CC2 [Example 163, N-[[(2S)-1-(3-cyanopropylsulfonyl)-4,4-difluoro-pyrrolidin-2-yl]methyl]-N-methyl-5-(7H-pyrrolo[2,3-d]pyrimidin-4-yl)-5,8-diazaspiro[2.5]octane-8-sulfonamide]"
< 100,< 100,< 100,< 100,"N#CCN(CCc1ccccc1)S(=O)(=O)N1CCN(c2ncnc3[nH]ccc23)CC12CC2 [Example 19, 7-(7H-Pyrrolo[2,3-d]pyrimidin-4-yl)-4,7-diaza-spiro[2.5]octane-4-sulfonic acid cyanomethyl-phenethyl-amide]"
< 100,,< 100,< 100,"N#CCCN(C1CC1)S(=O)(=O)N1CCN(c2ncnc3[nH]ccc23)CC12CC2 [Example 41, 7-(7H-Pyrrolo[2,3-d]pyrimidin-4-yl)-4,7-diaza-spiro[2.5]octane-4-sulfonic acid (2-cyano-ethyl)-cyclopropyl-amide]"
< 100,,< 100,< 100,"O=S(=O)(NCCO)N1CCN(c2ncnc3[nH]ccc23)CC12CC2 [Example 53, 7-(7H-Pyrrolo[2,3-d]pyrimidin-4-yl)-4,7-diaza-spiro[2.5]octane-4-sulfonic acid (2-hydroxy-ethyl)-amide]"
< 100,,< 100,< 100,"N#CCCCCN(CCc1ccccc1)S(=O)(=O)N1CCN(c2ncnc3[nH]ccc23)CC12CC2 [Example 20, 7-(7H-Pyrrolo[2,3-d]pyrimidin-4-yl)-4,7-diaza-spiro[2.5]octane-4-sulfonic acid (4-cyano-butyl)-phenethyl-amide]"
< 100,,< 100,< 100,"N#CCCCN(CCc1ccccc1)S(=O)(=O)N1CCN(c2ncnc3[nH]ccc23)CC12CC2 [Example 33, 7-(7H-Pyrrolo[2,3-d]pyrimidin-4-yl)-4,7-diaza-spiro[2.5]octane-4-sulfonic acid (3-cyano-propyl)-phenethyl-amide]"
